Laboratory results: patent publication US9861616B2, “Methods for treating respiratory diseases and formulations therefor” (priority 2013, dated 2018)
Values after ≈ are worked out from the molar mass of the structure shown.

Tests used:
[1] = tested on: MRSA strains from CF patients; assay: Microdilution MICs against 40 MRSA strains from CF patients; format: cell-based, S. aureus; details: Staphylococcus aureus, 40 MRSA strains from CF patients
Procedure: Two strains each of mucoid P. aeruginosa (both pyocyanin positive) and […] MRSA (only one strain with gold colonies) isolated from patients at a CF clinic were tested. Additionally, 2 B. cepacia strains were acquired, from Hershey Medical Center. All strains were identified by standard methods. Only one strain per patient was tested. MLVA was done on all strains to examine clonality, and confirmed that examination is not taking place on only one or a few clones. Strains will be stored in skim milk at −70° C. until use.
Original MICs of each strain to CEM-101 and other comparators were tested by CLSI microdilution methodology. Trays were obtained from Trek, Inc., Cleveland, Ohio. Time-kill macrobroth MIC dilution by CLSI was performed for all synergy testing.

P. aeruginosa (PA) = assay: MIC by microdilution, 36 clinical and laboratory strains with known efflux phenotype; format: cell-based
How it was run: (§1)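 Microdilution MICs against P. aeruginosa, including reference PAO1 and efflux-overexpressing clinical PA12, in cation-adjusted Mueller-Hinton broth or RPMI with 10% fetal calf serum, or MH broth with increasing serum. PaβN (50 mg/L) served as efflux inhibitor and EGTA (5 mM) as outer-membrane disruptor.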

TNFα release = assay: LPS-induced TNFα release in PMA-differentiated U937 cells (ELISA); format: cell-based, human
How it was run: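 U937 cells differentiated to macrophage-like state with PMA (50 ng/mL, 48 h) in RPMI/10% FBS, then stimulated with LPS in presence of macrolides. TNFα in supernatant measured by sandwich ELISA; means±SEM of three experiments, IC50 computed from cytokine inhibition.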

P. aeruginosa PA12 = assay: MIC by microdilution with PaβN or EGTA, clinical isolate overexpressing efflux pumps; format: cell-based; details: Pseudomonas aeruginosa
How it was run: as §1

`CC[C@H]1OC(=O)[C@H](C)[C@@H](O[C@H]2C[C@@](C)(OC)[C@@H](O)[C@H](C)O2)[C@H](C)[C@@H](O[C@@H]2O[C@H](C)C[C@H](N(C)C)[C@H]2O)[C@](C)(O)C[C@@H](C)CN(C)[C@H](C)[C@@H](O)[C@]1(C)O` [AZM, azithromycin] was tested, and the MIC50 ([1]; read-out: MIC50) was ≥ 32 µg/mL, the MIC90 ([1]; read-out: MIC90) was ≥ 32 µg/mL and the MIC (P. aeruginosa (PA); strain 1, efflux AB+, MHB) was 128 µg/mL (≈ 171 µM). It also gave an MIC (P. aeruginosa (PA); strain 1, efflux AB+, RPMI) of 4 µg/mL (≈ 5.34 µM), an MIC (P. aeruginosa (PA); strain 2, efflux CD+, MHB) of 512 µg/mL (≈ 684 µM) and an MIC (P. aeruginosa (PA); strain 2, efflux CD+, RPMI) of 4 µg/mL (≈ 5.34 µM). For the same compound, the MIC (P. aeruginosa (PA); strain 3, efflux EF+, MHB) was 64 µg/mL (≈ 85.4 µM), the MIC (P. aeruginosa (PA); strain 3, efflux EF+, RPMI) was 2 µg/mL (≈ 2.67 µM) and the MIC (P. aeruginosa (PA); strain 4, efflux XY+, MHB) was 256 µg/mL (≈ 342 µM). It also gave an MIC (P. aeruginosa (PA); strain 4, efflux XY+, RPMI) of 2 µg/mL (≈ 2.67 µM), an MIC (P. aeruginosa (PA); strain 11, efflux AB + CD+, MHB) of 128 µg/mL and an MIC (P. aeruginosa (PA); strain 11, efflux AB + CD+, RPMI) of 2 µg/mL. The MIC (P. aeruginosa (PA); strain 12, efflux AB + CD + EF + XY+, MHB) was 256 µg/mL, the MIC (P. aeruginosa (PA); strain 12, efflux AB + CD + EF + XY+, RPMI) was 2 µg/mL and the MIC (P. aeruginosa (PA); strain 16, efflux AB + XY+, MHB) was 256 µg/mL. It also gave an MIC (P. aeruginosa (PA); strain 16, efflux AB + XY+, RPMI) of 4 µg/mL, an MIC (P. aeruginosa (PA); strain 21, efflux AB+, MHB) of 256 µg/mL (≈ 342 µM) and an MIC (P. aeruginosa (PA); strain 21, efflux AB+, RPMI) of 2 µg/mL (≈ 2.67 µM). The MIC (P. aeruginosa (PA); strain 22, efflux XY+, MHB) was 256 µg/mL (≈ 342 µM), the MIC (P. aeruginosa (PA); strain 22, efflux XY+, RPMI) was 2 µg/mL (≈ 2.67 µM) and the MIC (P. aeruginosa (PA); strain 40, efflux EF+, MHB) was 256 µg/mL (≈ 342 µM). It also gave an MIC (P. aeruginosa (PA); strain 40, efflux EF+, RPMI) of 2 µg/mL (≈ 2.67 µM), an MIC (P. aeruginosa (PA); strain 41, efflux CD+, MHB) of 256 µg/mL (≈ 342 µM) and an MIC (P. aeruginosa (PA); strain 41, efflux CD+, RPMI) of 2 µg/mL (≈ 2.67 µM). For the same compound, the MIC (P. aeruginosa (PA); strain 48, efflux CD + EF + XY+, MHB) was 256 µg/mL, the MIC (P. aeruginosa (PA); strain 48, efflux CD + EF + XY+, RPMI) was 2 µg/mL and the MIC (P. aeruginosa (PA); strain 49, efflux CD + EF + XY+, MHB) was 256 µg/mL. It also gave an MIC (P. aeruginosa (PA); strain 49, efflux CD + EF + XY+, RPMI) of 2 µg/mL, an MIC (P. aeruginosa (PA); strain 63, efflux AB + EF + XY+, MHB) of 256 µg/mL and an MIC (P. aeruginosa (PA); strain 63, efflux AB + EF + XY+, RPMI) of 2 µg/mL. For the same compound, the MIC (P. aeruginosa (PA); strain 68, efflux AB + XY+, MHB) was 256 µg/mL, the MIC (P. aeruginosa (PA); strain 68, efflux AB + XY+, RPMI) was 2 µg/mL and the MIC (P. aeruginosa (PA); strain 133, efflux EF + XY+, MHB) was 256 µg/mL. The MIC (P. aeruginosa (PA); strain 133, efflux EF + XY+, RPMI) was 4 µg/mL, the MIC (P. aeruginosa (PA); strain 156, efflux EF + XY+, MHB) was 512 µg/mL and the MIC (P. aeruginosa (PA); strain 156, efflux EF + XY+, RPMI) was 4 µg/mL. For the same compound, the MIC (P. aeruginosa (PA); strain 168B, efflux CD + XY+, MHB) was 512 µg/mL, the MIC (P. aeruginosa (PA); strain 168B, efflux CD + XY+, RPMI) was 4 µg/mL and the MIC (P. aeruginosa (PA); strain 207, efflux AB + EF + XY+, MHB) was 512 µg/mL. It also gave an MIC (P. aeruginosa (PA); strain 207, efflux AB + EF + XY+, RPMI) of 4 µg/mL, an MIC (P. aeruginosa (PA); strain 266B, efflux AB + CD+, MHB) of 256 µg/mL and an MIC (P. aeruginosa (PA); strain 266B, efflux AB + CD+, RPMI) of 2 µg/mL. For the same compound, the MIC (P. aeruginosa (PA); strain 333A, efflux AB + EF+, MHB) was 256 µg/mL, the MIC (P. aeruginosa (PA); strain 333A, efflux AB + EF+, RPMI) was 2 µg/mL and the MIC (P. aeruginosa (PA); strain 335, efflux AB + EF+, MHB) was 512 µg/mL. The MIC (P. aeruginosa (PA); strain 335, efflux AB + EF+, RPMI) was 4 µg/mL, the MIC (P. aeruginosa (PA); strain 391, efflux EF−, MHB) was 128 µg/mL (≈ 171 µM) and the MIC (P. aeruginosa (PA); strain 391, efflux EF−, RPMI) was 2 µg/mL (≈ 2.67 µM). It also gave an MIC (P. aeruginosa (PA); strain 392, efflux CD−, MHB) of 128 µg/mL (≈ 171 µM), an MIC (P. aeruginosa (PA); strain 392, efflux CD−, RPMI) of 2 µg/mL (≈ 2.67 µM) and an MIC (P. aeruginosa (PA); strain 394, efflux XY−, MHB) of 256 µg/mL (≈ 342 µM). For the same compound, the MIC (P. aeruginosa (PA); strain 394, efflux XY−, RPMI) was 4 µg/mL (≈ 5.34 µM), the MIC (P. aeruginosa (PA); strain 395, efflux HI−, MHB) was 128 µg/mL (≈ 171 µM) and the MIC (P. aeruginosa (PA); strain 395, efflux HI−, RPMI) was 2 µg/mL (≈ 2.67 µM). The MIC (P. aeruginosa (PA); strain 396, ompH−, MHB) was 64 µg/mL (≈ 85.4 µM), the MIC (P. aeruginosa (PA); strain 396, ompH−, RPMI) was 2 µg/mL (≈ 2.67 µM) and the MIC (P. aeruginosa (PA); strain 397, efflux AB−, MHB) was 8 µg/mL (≈ 10.7 µM). For the same compound, the MIC (P. aeruginosa (PA); strain 397, efflux AB−, RPMI) was 1 µg/mL (≈ 1.34 µM), the MIC (P. aeruginosa (PA); strain 398, efflux CD−, MHB) was 16 µg/mL (≈ 21.4 µM) and the MIC (P. aeruginosa (PA); strain 398, efflux CD−, RPMI) was 1 µg/mL (≈ 1.34 µM). For the same compound, the MIC (P. aeruginosa (PA); strain 399, efflux AB − EF−, MHB) was 16 µg/mL (≈ 21.4 µM), the MIC (P. aeruginosa (PA); strain 399, efflux AB − EF−, RPMI) was 2 µg/mL (≈ 2.67 µM) and the MIC (P. aeruginosa (PA); strain 400, efflux XY−, MHB) was 8 µg/mL (≈ 10.7 µM). For the same compound, the MIC (P. aeruginosa (PA); strain 400, efflux XY−, RPMI) was 2 µg/mL (≈ 2.67 µM), the MIC (P. aeruginosa (PA); strain 401, ompH−, MHB) was 8 µg/mL (≈ 10.7 µM) and the MIC (P. aeruginosa (PA); strain 401, ompH−, RPMI) was 2 µg/mL (≈ 2.67 µM). The MIC (P. aeruginosa (PA); strain 403, efflux AB − CD − EF − XY−, MHB) was 8 µg/mL (≈ 10.7 µM), the MIC (P. aeruginosa (PA); strain 403, efflux AB − CD − EF − XY−, RPMI) was 2 µg/mL (≈ 2.67 µM) and the MIC (P. aeruginosa (PA); strain 405, efflux AB − CD − EF − XY−, MHB) was 8 µg/mL (≈ 10.7 µM). It also gave an MIC (P. aeruginosa (PA); strain 405, efflux AB − CD − EF − XY−, RPMI) of 2 µg/mL (≈ 2.67 µM), an MIC (P. aeruginosa (PA); strain 434, efflux AB + CD + XY+, MHB) of 512 µg/mL and an MIC (P. aeruginosa (PA); strain 434, efflux AB + CD + XY+, RPMI) of 4 µg/mL. The MIC (P. aeruginosa (PA); strain PAO1, REFERENCE, MHB) was 256 µg/mL (≈ 342 µM), the MIC (P. aeruginosa (PA); strain PAO1, REFERENCE, RPMI) was 4 µg/mL (≈ 5.34 µM) and the “effect on TNFα production” value (TNFα release; 33 to 333 μM (FIG. 3)) was “did not inhibit”. For the same compound, the IC50 (TNFα release; Homo sapiens, U-937, U937 cells, at 333 μM, read-out: IC50, LPS-induced TNFα release: NE at 333 μM) was > 333 µM, the MIC (P. aeruginosa PA12; PA12, PA12, CA-MHB, EGTA 5 mM) was 256 µg/mL (≈ 342 µM) and the MIC (P. aeruginosa PA12; PA12, PA12, CA-MHB, PaβN 50 mg/L) was 2 µg/mL (≈ 2.67 µM). The MIC (P. aeruginosa PA12; PA12, PA12, CA-MHB, control conditions (CT)) was 256 µg/mL (≈ 342 µM), the MIC (P. aeruginosa PA12; PA12, PA12, RPMI, EGTA 5 mM) was 0.5 µg/mL (≈ 0.668 µM) and the MIC (P. aeruginosa PA12; PA12, PA12, RPMI, PaβN 50 mg/L) was 2 µg/mL (≈ 2.67 µM). The MIC (P. aeruginosa PA12; PA12, PA12, RPMI, control conditions (CT)) was 2 µg/mL (≈ 2.67 µM).
